Literature values in patent publication US20250295592A1, “Method for Controlled Release Oral Drug Delivery” (priority 2024, published 2025).
Read-outs that look alike come from different tables or passages of the source.

[1] = human stomach, acidic gastric contents

SMILES | absorption from the stomach (in vivo) | absorption from the stomach [1]
Cc1cc(=O)n(-c2ccccc2)n1C [antipyrine] | readily absorbed | –
CC(=O)Oc1ccccc1C(=O)O [aspirin] | – | readily absorbed
C=CCC1(C(C)CCC)C(=O)NC(=O)NC1=O (stereo not shown) [secobarbital] | – | readily absorbed
CCCC(C)C1(CC)C(=O)NC(=S)NC1=O (stereo not shown) [thiopental] | – | readily absorbed
